23 molecules from patent US20130252890A1, “6,7-DIHYDRO-5H-BENZO[7]ANNULENE DERIVATIVES, PROCESS FOR PREPARATION THEREOF, PHARMACEUTICAL PREPARATIONS COMPRISING THEM, AND THE USE THEREOF FOR PRODUCTION OF MEDICAMENTS” (BAYER INTELLECTUAL PROPERTY GMBH, priority 2010, published 2013) can be followed below.

pIC50: −log10 of the molar value.

For orientation: pIC50 means the IC50 on a negative log10 scale, so that one unit is a factor of ten.

This assay deals with T1, oestrogen receptor (ER) (Homo sapiens, UniProt P03372).
T1 construct: These MVLN cells express, along with the functional oestrogen receptor (ER), a reporter construct; endogenous in cells; host or cells: MVLN cells (MCF7 derivative carrying a luciferase reporter construct)
T1 sequence (P03372 1-595): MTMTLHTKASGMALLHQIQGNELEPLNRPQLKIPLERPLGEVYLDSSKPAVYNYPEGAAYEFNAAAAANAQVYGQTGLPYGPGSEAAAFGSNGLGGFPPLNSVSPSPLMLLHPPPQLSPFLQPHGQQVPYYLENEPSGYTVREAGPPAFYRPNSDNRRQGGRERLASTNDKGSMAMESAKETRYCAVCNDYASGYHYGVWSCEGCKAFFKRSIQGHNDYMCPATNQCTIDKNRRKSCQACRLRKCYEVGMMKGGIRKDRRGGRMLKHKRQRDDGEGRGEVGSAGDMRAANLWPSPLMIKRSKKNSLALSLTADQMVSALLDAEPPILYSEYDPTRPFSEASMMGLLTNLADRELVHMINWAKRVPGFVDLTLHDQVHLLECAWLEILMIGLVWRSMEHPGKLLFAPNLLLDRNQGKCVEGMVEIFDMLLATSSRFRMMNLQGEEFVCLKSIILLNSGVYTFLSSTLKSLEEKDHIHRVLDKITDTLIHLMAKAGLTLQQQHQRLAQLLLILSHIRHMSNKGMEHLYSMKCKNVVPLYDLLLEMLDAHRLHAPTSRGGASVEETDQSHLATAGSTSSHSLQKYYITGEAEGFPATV
Nature of the assay: Anti-oestrogenic action in MVLN cells (inhibition of estradiol-induced luciferase). The assay is classed as cell-based. Particulars: inhibition of estradiol-induced luciferase signal, value of Ex. 44 is a mean value, read-out: Antioestrogenic action in vitro: MVLN transactivation antagonism IC50. The text has this:
The anti-oestrogenic action of the claimed pharmacological compounds was investigated in so-called MVLN cells in vitro. MVLN cells are derivatives of the hormone-responsive MCF7 breast cancer cells known by a person skilled in the art. These MVLN cells express, along with the functional oestrogen receptor (ER), a reporter construct, which under ER-activation expresses luciferase. Determination of the activity of the induced luciferase permits a direct conclusion on the oestrogen properties of substances. To investigate the anti-oestrogenic properties of the pharmacological compounds, they were investigated in the presence of oestrogen for their potential for inhibiting the luciferase signal induced by estradiol. The claimed pharmacological test substances were investigated in MVLN cells for their anti-oestrogenic potential, as described (see Table 2).
In the case of `CN(CCCCCCC1=C(c2cc(F)cc(F)c2)CCCc2cc(O)ccc21)CCCS(=O)(=O)CCCC(F)(F)C(F)(F)F` [Example 1, 8-(3,5-Difluorophenyl)-9-[6-(methyl{3-[(4,4,5,5,5-pentafluoropentyl)sulphonyl]propyl}amino)hexyl]-6,7-dihydro-5H-benzo[7]annulen-3-ol], the pIC50 is 7.32.
Take `CN(CCCCCCC1=C(c2cc(F)cc(F)c2)CCCc2cc(O)ccc21)CCC[S+]([O-])CCC(F)(F)C(F)(F)F` (centres unmarked) [Example 2, 8-(3,5-Difluorophenyl)-9-[6-(methyl{3-[(3,3,4,4,4-pentafluorobutyl)sulphinyl]propyl}amino)hexyl]-6,7-dihydro-5H-benzo[7]annulen-3-ol]: the pIC50 was 8.10.
The figure for `CN(CCCCCCC1=C(c2cc(F)cc(F)c2)CCCc2cc(O)ccc21)CCCS(=O)(=O)CCC(F)(F)C(F)(F)F` [Example 3, 8-(3,5-Difluorophenyl)-9-[6-(methyl{3-[(3,3,4,4,4-pentafluorobutyl)sulphonyl]propyl}amino)hexyl]-6,7-dihydro-5H-benzo[7]annulen-3-ol] is 6.74; for `CN(CCCCCCC1=C(c2cc(F)cc(F)c2)CCCc2cc(O)ccc21)CCCC[S+]([O-])CCCC(F)(F)C(F)(F)F` (centres unmarked) [Example 4, 8-(3,5-Difluorophenyl)-9-[6-(methyl{4-[(4,4,5,5,5-pentafluoropentyl)sulphinyl]butyl}amino)hexyl]-6,7-dihydro-5H-benzo[7]annulen-3-ol] it is 8.22; for `CN(CCCCCCC1=C(c2cc(F)cc(F)c2)CCCc2cc(O)ccc21)CCC[S+]([O-])CCC(F)(F)F` (centres unmarked) [Example 5, 8-(3,5-Difluorophenyl)-9-[6-(methyl{3-[(3,3,3-trifluoropropyl)sulphinyl]propyl}amino)hexyl]-6,7-dihydro-5H-benzo[7]annulen-3-ol] it is 7.34.
In the case of `CN(CCCCCCC1=C(c2cc(F)cc(F)c2)CCCc2cc(O)ccc21)CCCS(=O)(=O)CCC(F)(F)F` [Example 6, 8-(3,5-Difluorophenyl)-9-[6-(methyl{3-[(3,3,3-trifluoropropyl)sulphonyl]propyl}amino)hexyl]-6,7-dihydro-5H-benzo[7]annulen-3-ol], the negative-log IC50 (pIC50) is 6.74.
The figure for `CN(CCCCCCC1=C(c2cc(F)cc(F)c2)CCCc2cc(O)ccc21)CCC[S+]([O-])CCCC(F)(F)C(F)(F)F` (centres unmarked) [Example 8, 8-(3,5-Difluorophenyl)-9-[6-(methyl{3-[(4,4,5,5,5-pentafluoropentyl)sulphinyl]propyl}amino)hexyl]-6,7-dihydro-5H-benzo[7]annulen-3-ol] is 7.92.
The same measure for `CN(CCCCCCC1=C(c2cc(F)cc(F)c2)CCCc2cc(O)ccc21)CCCCS(=O)(=O)CCCC(F)(F)C(F)(F)F` [Example 9, 8-(3,5-Difluorophenyl)-9-[6-(methyl{4-[(4,4,5,5,5-pentafluoropentyl)sulphonyl]butyl}amino)hexyl]-6,7-dihydro-5H-benzo[7]annulen-3-ol]: 7.77; for `CC(C)(O)CN(CCCCCCC1=C(c2cc(F)cc(F)c2)CCCc2cc(O)ccc21)CCC[S+]([O-])CCC(F)(F)F` (centres unmarked) [Example 10, 8-(3,5-Difluorophenyl)-9-{6-[(2-hydroxy-2-methylpropyl){3-[(3,3,3-trifluoropropyl)sulphinyl]propyl}amino]hexyl}-6,7-dihydro-5H-benzo[7]annulen-3-ol]: 7.42.
The figure for `CC(C)(O)CN(CCCCCCC1=C(c2cc(F)cc(F)c2)CCCc2cc(O)ccc21)CCCS(=O)(=O)CCC(F)(F)F` [Example 11, 8-(3,5-Difluorophenyl)-9-{6-[(2-hydroxy-2-methylpropyl){3-[(3,3,3-trifluoropropyl)sulphonyl]propyl}amino]hexyl}-6,7-dihydro-5H-benzo[7]annulen-3-ol] is 7.08; for `CC(C)(O)CN(CCCCCCC1=C(c2cc(F)cc(F)c2)CCCc2cc(O)ccc21)CCC[S+]([O-])CCCC(F)(F)C(F)(F)F` (centres unmarked) [Example 12, 8-(3,5-Difluorophenyl)-9-{6-[(2-hydroxy-2-methylpropyl){3-[(4,4,5,5,5-pentafluoropentyl)sulphinyl]propyl}amino]hexyl}-6,7-dihydro-5H-benzo[7]annulen-3-ol] it is 7.82.
In the case of `CC(C)(O)CN(CCCCCCC1=C(c2cc(F)cc(F)c2)CCCc2cc(O)ccc21)CCCS(=O)(=O)CCCC(F)(F)C(F)(F)F` [Example 13, 8-(3,5-Difluorophenyl)-9-{6-[(2-hydroxy-2-methylpropyl){3-[(4,4,5,5,5-pentafluoropentyl)sulphonyl]propyl}amino]hexyl}-6,7-dihydro-5H-benzo[7]annulen-3-ol], the pIC50 was 7.70.
The same measure for `CCN(CCCCCCC1=C(c2cc(F)cc(F)c2)CCCc2cc(O)ccc21)CCCS(=O)(=O)CCC(F)(F)F` [Example 14, 8-(3,5-Difluorophenyl)-9-[6-(ethyl{3-[(3,3,3-trifluoropropyl)sulphonyl]propyl}amino)hexyl]-6,7-dihydro-5H-benzo[7]annulen-3-ol]: 6.77.
The figure for `COCCN(CCCCCCC1=C(c2cc(F)cc(F)c2)CCCc2cc(O)ccc21)CCCS(=O)(=O)CCCC(F)(F)C(F)(F)F` [Example 15, 8-(3,5-Difluorophenyl)-9-{6-[(2-methoxyethyl){3-[(4,4,5,5,5-pentafluoropentyl)sulphonyl]propyl}amino]hexyl}-6,7-dihydro-5H-benzo[7]annulen-3-ol] is 7.59; for `COCCCN(CCCCCCC1=C(c2cc(F)cc(F)c2)CCCc2cc(O)ccc21)CCCS(=O)(=O)CCCC(F)(F)C(F)(F)F` [Example 16, 8-(3,5-Difluorophenyl)-9-{6-[(3-methoxypropyl){3-[(4,4,5,5,5-pentafluoropentyl)sulphonyl]propyl}amino]hexyl}-6,7-dihydro-5H-benzo[7]annulen-3-ol] it is 7.57; for `CN(CCCCCCC1=C(c2ccc(F)c(F)c2)CCCc2cc(O)ccc21)CCCS(=O)(=O)CCCC(F)(F)C(F)(F)F` [Example 17, 8-(3,4-Difluorophenyl)-9-[6-(methyl{3-[(4,4,5,5,5-pentafluoropentyl)sulphonyl]propyl}amino)hexyl]-6,7-dihydro-5H-benzo[7]annulen-3-ol] it is 7.34.
For `CN(CCCCCCC1=C(c2ccc(F)c(F)c2)CCCc2cc(O)ccc21)CCC[S+]([O-])CCC(F)(F)C(F)(F)F` (centres unmarked) [Example 18, 8-(3,4-Difluorophenyl)-9-[6-(methyl{3-[(3,3,4,4,4-pentafluorobutyl)sulphinyl]propyl}amino)hexyl]-6,7-dihydro-5H-benzo[7]annulen-3-ol], the pIC50 was 7.47.
As for `CN(CCCCCCC1=C(c2ccc(F)c(F)c2)CCCc2cc(O)ccc21)CCCS(=O)(=O)CCC(F)(F)C(F)(F)F` [Example 19, 8-(3,4-Difluorophenyl)-9-[6-(methyl{3-[(3,3,4,4,4-pentafluorobutyl)sulphonyl]propyl}amino)hexyl]-6,7-dihydro-5H-benzo[7]annulen-3-ol], the negative logarithm of the IC50 (pIC50) was 7.21.
The same measure for `CN(CCCCCCC1=C(c2ccc(F)c(F)c2)CCCc2cc(O)ccc21)CCCC[S+]([O-])CCCC(F)(F)C(F)(F)F` (centres unmarked) [Example 20, 8-(3,4-Difluorophenyl)-9-[6-(methyl{4-[(4,4,5,5,5-pentafluoropentyl)sulphinyl]butyl}amino)hexyl]-6,7-dihydro-5H-benzo[7]annulen-3-ol]: 8.05; for `CN(CCCCCCC1=C(c2ccc(F)c(F)c2)CCCc2cc(O)ccc21)CCC[S+]([O-])CCC(F)(F)F` (centres unmarked) [Example 21, 8-(3,4-Difluorophenyl)-9-[6-(methyl{3-[(3,3,3-trifluoropropyl)sulphinyl]propyl}amino)hexyl]-6,7-dihydro-5H-benzo[7]annulen-3-ol]: 7.32.
The figure for `CN(CCCCCCC1=C(c2ccc(F)c(F)c2)CCCc2cc(O)ccc21)CCCS(=O)(=O)CCC(F)(F)F` [Example 22, 8-(3,4-Difluorophenyl)-9-[6-(methyl{3-[(3,3,3-trifluoropropyl)sulphonyl]propyl}amino)hexyl]-6,7-dihydro-5H-benzo[7]annulen-3-ol] is 6.65; for `CN(CCCCCCC1=C(c2ccc(F)c(F)c2)CCCc2cc(O)ccc21)CCC[S+]([O-])CCCC(F)(F)C(F)(F)F` (centres unmarked) [Example 24, 8-(3,4-Difluorophenyl)-9-[6-(methyl{3-[(4,4,5,5,5-pentafluoropentyl)sulphinyl]propyl}amino)hexyl]-6,7-dihydro-5H-benzo[7]annulen-3-ol] it is 8.10; for `CN(CCCCCCC1=C(c2ccc(F)c(F)c2)CCCc2cc(O)ccc21)CCCCS(=O)(=O)CCCC(F)(F)C(F)(F)F` [Example 25, 8-(3,4-Difluorophenyl)-9-[6-(methyl{4-[(4,4,5,5,5-pentafluoropentyl)sulphonyl]butyl}amino)hexyl]-6,7-dihydro-5H-benzo[7]annulen-3-ol] it is 7.55.
